Source: article PMC6222660, “Antiviral 4-Hydroxypleurogrisein and Antimicrobial Pleurotin Derivatives from Cultures of the Nematophagous Basidiomycete Hohenbuehelia grisea” (Molecules : A Journal of Synthetic Chemistry and Natural …, 2018)
Converted amounts (≈) assume the structure as drawn. Like-named read-outs stand apart in the source and are kept apart here.

Key:
Assay type in all cases: cell-based
[1] = test system: Candida tenuis MUCL29892; experiment: MIC serial dilution assay; set-up: key: -: no inhibition observed under test conditions; conditions: highest concentration 67 or 100 µg/mL
From the text: (§1) The minimum inhibitory concentration (MIC) for each compound was ascertained in a serial dilution assay in 96-well microtiter plates, as previously published by Kuhnert et al., using YM media for yeasts and filamentous fungi and BD^TM Difco™ Mueller Hinton Broth for bacteria.

[2] = test system: Staphylococcus aureus DSM346; experiment: MIC serial dilution assay; set-up: key: -: no inhibition observed under test conditions; conditions: highest concentration 67 or 100 µg/mL
From the text: as §1

[3] = test system: Rhodotorula glutinis DSM10134; experiment: MIC serial dilution assay; set-up: key: -: no inhibition observed under test conditions; conditions: highest concentration 67 or 100 µg/mL
From the text: as §1

[4] = test system: Micrococcus luteus DSM1790; experiment: MIC serial dilution assay; set-up: key: -: no inhibition observed under test conditions; conditions: highest concentration 67 or 100 µg/mL
From the text: as §1

[5] = test system: Candida albicans DSM1665; experiment: MIC serial dilution assay; set-up: key: -: no inhibition observed under test conditions; conditions: highest concentration 67 or 100 µg/mL
From the text: as §1

[6] = test system: Mucor plumbeus MUCL49355; experiment: MIC serial dilution assay; set-up: key: -: no inhibition observed under test conditions; conditions: highest concentration 67 or 100 µg/mL
From the text: as §1

[7] = test system: Mucor hiemalis DSM2656; experiment: MIC serial dilution assay; set-up: key: -: no inhibition observed under test conditions; conditions: highest concentration 67 or 100 µg/mL
From the text: as §1

[8] = test system: Bacillus subtilis DSM10; experiment: MIC serial dilution assay; set-up: key: -: no inhibition observed under test conditions; conditions: highest concentration 67 or 100 µg/mL
From the text: as §1

[9] = test system: Pichia anomala DSM6766; experiment: MIC serial dilution assay; set-up: key: -: no inhibition observed under test conditions; conditions: highest concentration 67 or 100 µg/mL
From the text: as §1

[10] = test system: mouse fibroblast cell line L929; experiment: In vitro cytotoxicity assay; conditions: 120 h, 6 × 10^3 cells/well, treated over five days
Procedure: (§2) In vitro cytotoxicity assay was performed as described by Richter et al. against the mouse fibroblast cell line L929 and the cervix carcinoma cell line KB3.1.

[11] = test system: cervix carcinoma cell line KB3.1; experiment: In vitro cytotoxicity assay; conditions: Homo sapiens, KB 3-1, 120 h, 6 × 10^3 cells/well, treated over five days
Procedure: as §2

[12] = test system: hepatitis C virus (HCV); experiment: Inhibitory effects on HCV infectivity (Renilla luciferase reporter virus in Huh-7.5 cells); conditions: for activity in the HCV assay in vitro: Huh-7.5 host cells
Procedure: (§3) Figure 4 Antiviral activity of 4-hydroxypleurogrisin (11). NC-Negative control, EGCG-Positive control. HCV assay was performed in triplicates and is presented as the mean ± standard deviation. The asterisk indicates statistically significant differences (* p ≤ 0.05, ** p ≤ 0.01, *** p ≤ 0.001). Huh-7.5 cells were inoculated with RLuc-Jc1 reporter viruses in the presence of 4-hydroxypleurogrisein. The inoculum was removed 4 h later and monolayers were washed three times with PBS and overlaid with fresh medium containing no inhibitors. Infected cells were lysed three days later, and reporter virus infection was determined by renilla luciferase activity (top). The cell viability was measured by determination of firefly luciferase (bottom), which is stably expressed in the target cells.
This assay was carried out as described previously by Mulwa et al.. Huh7.5 cells stably expressing Firefly luciferase (Huh7.5 Fluc) were cultured in Dulbecco’s modified minimum essential medium (DMEM, Life Technologies, Darmstadt, Germany) containing 2 mM L glutamine, 1 × minimum essential medium nonessential amino acids (MEM NEAA, Life Technologies), 100 μg/mL streptomycin, 100 IU/mL penicillin (Life Technologies), 5 μg/mL blasticidin and 10% fetal bovine serum. Cells were maintained in a 37 °C environment with 5% CO2 supply. Cells were infected with Jc1-derived Renilla reporter viruses in the presence or absence of compounds as described previously. Infected cells were lysed and then frozen at −80 °C for 1 h following measurements of Renilla and Firefly luciferase activities on a Berthold Technologies Centro XS3 Microplate Luminometer (Bad Wildbad, Germany) as indicators of viral genome replication and cell viability, respectively.

[13] = test system: Huh7.5 Fluc cells; experiment: Cell viability in HCV assay (firefly luciferase); conditions: at 20 ng/µL
Procedure: as §3
This assay was carried out as described previously by Mulwa et al.. Huh7.5 cells stably expressing Firefly luciferase (Huh7.5 Fluc) were cultured in Dulbecco’s modified minimum essential medium (DMEM, Life Technologies, Darmstadt, Germany) containing 2 mM L glutamine, 1 × minimum essential medium nonessential amino acids (MEM NEAA, Life Technologies), 100 μg/mL streptomycin, 100 IU/mL penicillin (Life Technologies), 5 μg/mL blasticidin and 10% fetal bovine serum. Cells were maintained in a 37 °C environment with 5% CO2 supply. […]

[14] = Yamadazyma tenuis, read-out: MIC
[15] = Hansenula anomala, read-out: MIC

Compound | MIC [1, 14] | MIC ([2]; read-out: MIC) | MIC ([8]; read-out: MIC) | IC50 [10] | IC50 [11] | MIC [5] | MIC [6] | MIC [4] | MIC [2] | MIC [7] | MIC [9] | MIC [1] | MIC [3] | further results
C[C@@H]1CO[C@@H]2C3=C(C(=O)C=CC3=O)[C@H]3OC(=O)[C@@H]4CC[C@H]5[C@@H]1CC[C@@]25[C@@H]34 [Compound 1, pleurotin] | 25 µg/mL (≈ 70.5 µM) | 33.3 µg/mL (≈ 94 µM) | 50 µg/mL (≈ 141 µM) | 7.5 µg/mL (≈ 21.2 µM) | 8.5 µg/mL (≈ 24 µM) |  |  |  |  |  |  |  |  | MIC ([3]; read-out: MIC): 16.7 µg/mL (≈ 47.1 µM); MIC ([4]; read-out: MIC): 66.7 µg/mL (≈ 188 µM); MIC ([5]; read-out: MIC): 33.3 µg/mL (≈ 94 µM); MIC ([6]; read-out: MIC): 100 µg/mL (≈ 282 µM); MIC ([7]; read-out: MIC): 8.3 µg/mL (≈ 23.4 µM); MIC [9, 15]: 66.7 µg/mL (≈ 188 µM)
C[C@@H]1CO[C@@H]2c3c(O)ccc(O)c3[C@H]3OC(=O)[C@@H]4CC[C@H]5[C@@H]1CC[C@@]25[C@@H]34 [Compound 2, leucopleurotin, reference compound] | 100 µg/mL (≈ 281 µM) | 33.3 µg/mL (≈ 93.4 µM) | 25 µg/mL (≈ 70.1 µM) | 2.2 µg/mL (≈ 6.17 µM) | 2.8 µg/mL (≈ 7.86 µM) | - | - |  |  |  |  |  |  | MIC ([3]; read-out: MIC): 33.3 µg/mL (≈ 93.4 µM); MIC ([4]; read-out: MIC): 66.7 µg/mL (≈ 187 µM); MIC ([7]; read-out: MIC): 33.3 µg/mL (≈ 93.4 µM); MIC [9, 15]: 66.7 µg/mL (≈ 187 µM)
CC1COC2C3=C(CC4C(C(=O)O)CCC5C1CCC245)C(=O)C=CC3=O (stereo not drawn) [Compound 3, dihydropleurotinic acid, reference compound] | 100 µg/mL (≈ 281 µM) | 66.7 µg/mL (≈ 187 µM) | 100 µg/mL (≈ 281 µM) | 18 µg/mL (≈ 50.5 µM) | 18 µg/mL (≈ 50.5 µM) | - |  | - |  |  |  |  |  | MIC ([3]; read-out: MIC): 33.3 µg/mL (≈ 93.4 µM); MIC ([6]; read-out: MIC): 100 µg/mL (≈ 281 µM); MIC ([7]; read-out: MIC): 16.7 µg/mL (≈ 46.9 µM); MIC [9, 15]: 66.7 µg/mL (≈ 187 µM)
CC1COC2C3=C(CC4C(C(=O)O)CCC5C1(O)CCC245)C(=O)C=CC3=O (stereo not drawn) [Compound 5, 3-Hydroxy-dihydropleurotinic acid] | 100 µg/mL (≈ 269 µM) |  | 100 µg/mL (≈ 269 µM) | 22 µg/mL (≈ 59.1 µM) | 22 µg/mL (≈ 59.1 µM) | - | - | - | - | - | - |  |  | MIC ([3]; read-out: MIC): 33.3 µg/mL (≈ 89.4 µM); activity in the HCV assay in vitro [12]: devoid of any activity
C[C@@H]1CO[C@@H]2C3=C(C(=O)C=CC3=O)[C@@H](O)[C@H]3[C@H](C(=O)O)CC[C@H]4[C@@H]1CC[C@@]324 [Compound 6, 14-Hydroxy-dihydropleurotinic acid] |  |  |  | 23 µg/mL (≈ 61.8 µM) | 22 µg/mL (≈ 59.1 µM) | - | - | - | - | - | - | - | - | MIC [8]: -
C[C@@H]1CO[C@@H]2c3c(O)ccc(O)c3C[C@H]3[C@H](C(=O)O)CC[C@H]4[C@@H]1CC[C@@]243 [Compound 7, Leucopleurotinic acid] |  |  |  | 17 µg/mL (≈ 47.4 µM) | 20 µg/mL (≈ 55.8 µM) | - | - | - | - | - | - | - | - | MIC [8]: -
C[C@@H]1CO[C@@H]2c3c(O)ccc(O)c3C(=O)[C@H]3[C@H](C(=O)O)CC[C@H]4[C@@H]1CC[C@@]243 [Compound 8, 14-oxo-leucopleuotinic acid] |  |  | 50 µg/mL (≈ 134 µM) | 22 µg/mL (≈ 59.1 µM) | 22 µg/mL (≈ 59.1 µM) | - | - | - | - | - | - | - | - | 
C=C1CO[C@@H]2c3c(O)ccc(O)c3[C@H]3OC(=O)[C@@H]4CC[C@H]5[C@@H]1CC[C@@]25[C@@H]34 [Compound 9, Nematoctone] | 25 µg/mL (≈ 70.5 µM) |  |  | 21 µg/mL (≈ 59.3 µM) | 18 µg/mL (≈ 50.8 µM) | - | - | - | - | - | - |  | - | MIC [8]: -
C[C@H](CO)[C@H]1CC[C@]23C(=O)c4c(O)ccc(O)c4C(=O)[C@H]2[C@H](C(=O)O)CC[C@@H]13 [Compound 10, Di-oxo-leucopleurotinic acid] |  |  | 100 µg/mL (≈ 257 µM) | 22 µg/mL (≈ 56.6 µM) | 22 µg/mL (≈ 56.6 µM) | - | - | - | - | - | - | - | - | 
CC(C)(O)C1CCC23CC4=C(CC2C(O)(CO)CCC13)C(=O)C=CC4=O (stereo not drawn) [Compound 11, 4-Hydroxypleurogrisein] |  | 33.3 µg/mL (≈ 92.4 µM) | 50 µg/mL (≈ 139 µM) | 6.9 µg/mL (≈ 19.1 µM) | 7.5 µg/mL (≈ 20.8 µM) | - | - |  |  | - | - | - | - | MIC ([4]; read-out: MIC): 66.7 µg/mL (≈ 185 µM); IC50 ([12]; Hepatitis C virus, Huh7.5, read-out: IC50 of HCV infectivity): ~5 µg/mL (≈ 13.9 µM); activity in the HCV assay in vitro [12]: significant activities in vitro; inhibitory effect on HCV infectivity ([12]; at 10 ng/µL): strong inhibitory effect; cytotoxic effects (cell viability, firefly luciferase) [13]: cytotoxic effects were noted
C/C(=C\c1csc(C)n1)[C@@H]1C[C@@H]2O[C@]2(C)CCC[C@H](C)[C@H](O)[C@@H](C)C(=O)C(C)(C)[C@@H](O)CC(=O)O1 [Epothilone B, reference compound] |  |  |  | 0.00062 µg/mL (≈ 0.00122 µM) | 3e-05 µg/mL (≈ 5.91e-05 µM) |  |  |  |  |  |  |  |  | 
C[C@@H]1[C@H](O)[C@@H](C)/C=C/C=C/CC/C=C/C=C/C=C/C=C/C(O[C@H]2O[C@H](C)[C@@H](O)[C@H](N)[C@@H]2O)CC2O[C@](O)(CC(O)C(O)CCC(O)CC(O)CC(O)CC(=O)O[C@H]1C)CC(O)C2C(=O)O (stereo partly drawn) [Nystatin, reference compound] |  |  |  |  |  | Nystatin (16.7) µg/mL | Nystatin (12.5) µg/mL |  |  | Nystatin (16.7) µg/mL | Nystatin (16.7) µg/mL | Nystatin (12.5) µg/mL | Nystatin (16.7) µg/mL | 
CN(C)[C@@H]1C(O)=C(C(N)=O)C(=O)[C@@]2(O)C(O)=C3C(=O)c4c(O)cccc4[C@@](C)(O)[C@H]3[C@H](O)[C@@H]12 [Oxytetracycline, reference compound] |  | 6.7 µg/mL (≈ 14.6 µM) |  |  |  |  |  |  |  |  |  |  |  | MIC ([4]; read-out: MIC): 0.4 µg/mL (≈ 0.869 µM)
Penicillin [reference compound] |  |  |  |  |  |  |  |  |  |  |  |  |  | MIC [8]: Penicillin (6.3) µg/mL
